Test results as given in patent US5545547A, “Enzymes as agricultural chemical adjuvants” (priority 1992, dated 1996).

Legend:
Format in all cases: in vivo
[1] = test system: Soybeans; test: Greenhouse multispecies herbicide screen with/without P. mendocina enzyme; conditions: one week after treatment
Text: (§1) Several plant species including weeds and crops are used in these experiments.
(§2) A number of herbicides from various chemical classes were compared in a multispecies screen for percent chlorosis, necrosis and vigor reduction both with and without application of the enzyme from Pseudomonas mendocina ATCC 53552 described earlier. The herbicides were applied to various plants at the manufacturers recommended doses and at 10% and 40% of the recommended dose. Two different enzyme concentrations were used: 0.5 mg/ml (HE) and 0.05 mg/ml (LE) and applied at the rate of 40 gallons/acre. All spraying solutions were at pH 10 and contained 100 mm sodium phosphate each. Ratings were done at 6 and 12 days after the treatment. All the experiments were carried out in a greenhouse.
(§3) Chlorosis--figures represent percent of plants showing chlorosis.
(§4) Necrosis--figures represent percent of plants showing necrosis.
(§5) Vigor--figures represent percent of plants showing decreased vigor.
(§6) Phytotoxicity--figures represent the average percent of chlorosis, necrosis, and vigor for a given sample.
(§7) The method of Example 1 was used except that the enzyme was applied 2 hours prior to administering the agricultural chemical with the following results. Ratings were done two weeks after treatment

[2] = test system: Turnip; test: as above; conditions: one week after treatment
Text: as §1, §2, §3, §4, §5, §6, §7

[3] = test system: various plants; test: Greenhouse multispecies herbicide screen, statements on all tested plants; conditions: High HYVAR; all other tested conditions; after two weeks
Text: as §1
as §2, with “Ratings were done at 6 and 12 days after the treatment.” left out

[4] = test system: Giant Fox Tail; test: Greenhouse multispecies herbicide screen with/without P. mendocina enzyme; conditions: HYVAR 18%, two weeks after treatment

SMILES: CCC(C)n1c(=O)[nH]c(C)c(Br)c1=O (stereo not drawn) [HYVAR, 5-bromo-6-methyl-3-(1-methylpropyl)-2,4-(1H,3H)-pyrimidinedione]
- CHL (chlorosis) ([1]; HYVAR 10% dose, High Enzyme): 25%
- NEC (necrosis) ([1]; HYVAR 10% dose, High Enzyme): 50%
- PHY (phytotoxicity) ([1]; HYVAR 10% dose, High Enzyme): 42%
- VIG (vigor) ([1]; HYVAR 10% dose, High Enzyme): 50%
- CHL (chlorosis) ([1]; HYVAR 10% dose, Low Enzyme): 90%
- NEC (necrosis) ([1]; HYVAR 10% dose, Low Enzyme): 83%
- PHY (phytotoxicity) ([1]; HYVAR 10% dose, Low Enzyme): 88%
- VIG (vigor) ([1]; HYVAR 10% dose, Low Enzyme): 90%
- CHL (chlorosis) ([1]; HYVAR 10% dose, No Enzyme): 55%
- NEC (necrosis) ([1]; HYVAR 10% dose, No Enzyme): 75%
- PHY (phytotoxicity) ([1]; HYVAR 10% dose, No Enzyme): 68%
- VIG (vigor) ([1]; HYVAR 10% dose, No Enzyme): 75%
- CHL (chlorosis) ([1]; HYVAR 40% dose, High Enzyme): 45%
- NEC (necrosis) ([1]; HYVAR 40% dose, High Enzyme): 50%
- PHY (phytotoxicity) ([1]; HYVAR 40% dose, High Enzyme): 59%
- VIG (vigor) ([1]; HYVAR 40% dose, High Enzyme): 83%
- CHL (chlorosis) ([1]; HYVAR 40% dose, Low Enzyme): 55%
- NEC (necrosis) ([1]; HYVAR 40% dose, Low Enzyme): 88%
- PHY (phytotoxicity) ([1]; HYVAR 40% dose, Low Enzyme): 72%
- VIG (vigor) ([1]; HYVAR 40% dose, Low Enzyme): 73%
- CHL (chlorosis) ([1]; HYVAR 40% dose, No Enzyme): 45%
- NEC (necrosis) ([1]; HYVAR 40% dose, No Enzyme): 60%
- PHY (phytotoxicity) ([1]; HYVAR 40% dose, No Enzyme): 39%
- VIG (vigor) ([1]; HYVAR 40% dose, No Enzyme): 73%
- CHL (chlorosis) ([1]; HYVAR 100% dose, No Enzyme): 100%
- NEC (necrosis) ([1]; HYVAR 100% dose, No Enzyme): 100%
- PHY (phytotoxicity) ([1]; HYVAR 100% dose, No Enzyme): 100%
- VIG (vigor) ([1]; HYVAR 100% dose, No Enzyme): 100%
- CK (chlorosis) ([2]; HYVAR 10% dose, High Enzyme): 50%
- NEC (necrosis) ([2]; HYVAR 10% dose, High Enzyme): 85%
- PHY (phytotoxicity) ([2]; HYVAR 10% dose, High Enzyme): 73%
- VIG (vigor) ([2]; HYVAR 10% dose, High Enzyme): 83%
- CK (chlorosis) ([2]; HYVAR 10% dose, Low Enzyme): 70%
- NEC (necrosis) ([2]; HYVAR 10% dose, Low Enzyme): 90%
- PHY (phytotoxicity) ([2]; HYVAR 10% dose, Low Enzyme): 84%
- VIG (vigor) ([2]; HYVAR 10% dose, Low Enzyme): 93%
- CK (chlorosis) ([2]; HYVAR 10% dose, No Enzyme): 70%
- NEC (necrosis) ([2]; HYVAR 10% dose, No Enzyme): 93%
- PHY (phytotoxicity) ([2]; HYVAR 10% dose, No Enzyme): 84%
- VIG (vigor) ([2]; HYVAR 10% dose, No Enzyme): 90%
- CK (chlorosis) ([2]; HYVAR 40% dose, High Enzyme): 97%
- NEC (necrosis) ([2]; HYVAR 40% dose, High Enzyme): 97%
- PHY (phytotoxicity) ([2]; HYVAR 40% dose, High Enzyme): 97%
- VIG (vigor) ([2]; HYVAR 40% dose, High Enzyme): 98%
- CK (chlorosis) ([2]; HYVAR 40% dose, Low Enzyme): 93%
- NEC (necrosis) ([2]; HYVAR 40% dose, Low Enzyme): 95%
- PHY (phytotoxicity) ([2]; HYVAR 40% dose, Low Enzyme): 94%
- VIG (vigor) ([2]; HYVAR 40% dose, Low Enzyme): 95%
- CK (chlorosis) ([2]; HYVAR 40% dose, No Enzyme): 65%
- NEC (necrosis) ([2]; HYVAR 40% dose, No Enzyme): 73%
- PHY (phytotoxicity) ([2]; HYVAR 40% dose, No Enzyme): 74%
- VIG (vigor) ([2]; HYVAR 40% dose, No Enzyme): 85%
- CK (chlorosis) ([2]; HYVAR 100% dose, No Enzyme): 100%
- NEC (necrosis) ([2]; HYVAR 100% dose, No Enzyme): 95%
- PHY (phytotoxicity) ([2]; HYVAR 100% dose, No Enzyme): 95%
- VIG (vigor) ([2]; HYVAR 100% dose, No Enzyme): 90%
- kill [3]: 100%
- CHL (chlorosis) ([4]; High Enzyme): 75%
- NEC (necrosis) ([4]; Low Enzyme): 73%
- VIG (vigor) ([4]; Low Enzyme): 73%
